Data on 2 substances can be found in patent US6737076B2, “Hypoallergenic composition containing tolerogenic peptides” (Nestec S.A., priority 1999, dated 2004).

For assay [1], the system named is GLM. The experiment in a line: Lymphocyte proliferation stimulation index (GLM) after oral peptide feeding. The assay is classed as in vivo, mice. To be noted: synthetic peptides, 20 mcg/g of body weight. On the procedure: (§1) Spleen cell solutions were homogenized and purified. Cells were cocultured in the presence of β-LG or of phytohaemagglutinin A. (^3H)Tdr (Amersham, Zurich) was added in the final 6 hours of culture and the plates were harvested and analyzed by scintillation counting. Stimulation indices were calculated as the ratio of blank-subtracted test and control values expressed as the mean cpm (^3H)Tdr incorporation by triplicate cultures.
(§2) The tolerogenic peptides T6 and T17 contained in tolerogenic fraction F2 were synthetically prepared. T13 contained in a non tolerogenic fraction was also synthesized as a negative control. Oral tolerance induction of these peptides were tested in […] mice as described in example 1c) except that the dose is of 20 mcg/g of body weight.

For assay [2], the system named is anti-β-LG IgE. The experiment in a line: Seric anti-β-LG IgE by ELISA after oral tolerance induction and immunization. The assay is classed as in vivo, mice. To be noted: synthetic peptides, 20 mcg/g of body weight; control 3.39. How it is done:
(§3) Female Balb/c mice were obtained from IFFA-Crédo (L'Abresle, France). They were all bred and raised on a milk free diet. The mice were 3 weeks old at the start of the experiments.
(§4) Gavages were orally administered to the mice at age 22 days, by gastric feeding of native β-LG (5 mg/g of body weight), various amounts of TTH β-LG, or various amounts of the different β-LG peptidic fractions. Control mice were fed saline water. 5 days later, all mice were immunized β-LG and OVA (Ovalbumin, grade V, Sigma), as a non-related antigen for testing the specificity of the immune response, 21 days after systemic challenge, a Delayed Type Hypersensitivity (DTH) evaluation was done by duplicate thickness measures of the left, rear footpad prior to, and following, immunization with β-LG.
(§5) 24 hours after DTH immunization, individual increases in foot pad thickness of those injected the day before were measured. […] Specific IgE against β-LG and against OVA were determined both in seric and intestinal samples.
Serum and intestinal fluid dilutions were assayed in duplicate for anti-β-LG and anti-OVA IgE antibodies by ELISA. […] Titers were determined by calculating the dilution of the sample that gave twice the absorbance of the negative control. Titers were expressed as the log10 of the reciprocal of the dilution. […]
(In an ELISA, binding on a coated surface is turned into a signal by an enzyme label.)

The subject of assay [3] is Balb/c mice. Briefly: Oral tolerance induction mouse model, overall tolerogenic properties. The assay is classed as in vivo. As to conditions: oral administration of synthetic peptides, 20 mcg/g of body weight. How it is done: as §3, §4, §5
Qualitative responses of the tolerogenic properties generated from feeding the different fraction groups at two different concentrations (0.5 or 0.125 mg/g of body weight) were evaluated. Induction or absence of induction of tolerogenic responses to β-LG has been determined by the statistical significance of the immune response. […]

Assay [4] relates to β-LG epitopes. Briefly: ELISA inhibition, β-LG IgG binding capacity (residual β-LG epitopes, antigenicity). How it is done:
An ELISA inhibition was used to determine β-LG epitopes in β-LG hydrolysate and in β-LG fractions. β-lactoglobulin titers were calculated from a 5-fold dilution β-LG standard curve run on each plate.

In assay [5] the test system is Spleen cell. The experiment in a line: Splenocyte specific proliferation assay with β-LG ((3H)Tdr incorporation) from fed mice. The assay is classed as in vivo. As to conditions: 20 mcg/g of body weight; for cellular tolerance (specific inhibition of lymphocyte proliferation), in words: oral administration of synthetic peptides; for Stimulation index (rate): synthetic peptides.
From the text: FIG. 1 represents specific oral tolerance induction in mice fed once with either TTH β-LG, F2 or F(7+9). A: Humoral (dark bars) and mucosal (gray bars) anti-β-LG IgE response. B: β-LG-specific DTH response (●) are individual foot pad increments and (−) are means from 10 mice per group. C and D: Specific (β-LG) and non specific (PHA) proliferative responses of splenic cells. Splenic lymphocytes from mice fed with either saline (♦), TTH β-LG (▪), F2 (▴), or F (7+9) (●) were isolated and subsequently stimulated with decreasing concentrations of antigens. ^3H thymidine incorporation was measured after 120 hours of culture. (^3H)Tdr incorporation results were expressed in cpm, as a mean of triplicate cultures, the blank-subtracted mean was then plotted respectively against β-LG or PHA concentration.
24 hours after DTH immunization, individual increases in foot pad thickness of those injected the day before were measured. Differences between these two measurements were expressed in <thickness (millimeters) and used in group comparisons. Then, from all mice, blood samples were obtained, spleens were taken and pooled according to group of treatment. Splenocyte specific proliferation assays were performed for each group. Intestinal contents were individually collected. Serum and intestinal samples were rapidly frozen at −80° C., until assays. Specific IgE against β-LG and against OVA were determined both in seric and intestinal samples.
as §1, §2

Regarding “H2N-I-D-A-L-N-E-N-K-COOH (H-IDALNENK-OH) [T6]”, in assay [1], the “Stimulation index (GLM)” value turned out to be 0.285. Moreover, the “tolerized anti-LG IgE/ control (tolerized value)” value in assay [2] is on record as 3.24/3.39. Also, the “tolerance induction / tolerogenic potential (in words)” value in assay [3] is “high tolerogenic potential”. For the same substance, in assay [4], the “antigenicity (in words)” value was “very low antigenicity”. In assay [5], the “cellular tolerance (specific inhibition of lymphocyte proliferation), in words” value is listed as “induces a cellular tolerance” and the “Stimulation index (rate)” value was 0.53.
Regarding H2N-V-L-V-L-D-T-D-Y-K,-K-COOH [T17], in assay [1], the “Stimulation index (GLM)” value is reported as 0.405. Moreover, the “tolerized anti-LG IgE/ control (tolerized value)” value in assay [2] was 2.67/3.39. Moreover, the “tolerance induction / tolerogenic potential (in words)” value in assay [3] is on record as “high tolerogenic potential”. In assay [4], the “antigenicity (in words)” value was “very low antigenicity”. Also, in assay [5], the “cellular tolerance (specific inhibition of lymphocyte proliferation), in words” value is on record as “induces a cellular tolerance” and the “Stimulation index (rate)” value is 0.305.
